In patent US20120225062A1 (priority 2011, published 2012):

Legend:
[1] = test system: KMS11 (human myeloma cell line); assay: Cell Proliferation Assay (CellTiter-Glo, 3 days); assay type: cell-based; conditions: KMS-11, 72 h, KMS11-luc cells
Outline: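 KMS11 myeloma cells, 2000 per well in IMDM with 10% FBS, exposed to compound for 3 days at 37° C. Viability read by CellTiter-Glo luminescence; EC50 derived.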

Pim 2 = Pim 2 (Homo sapiens, UniProt Q9P1W9); assay: Pim 2 AlphaScreen assay (high ATP)
Pim 1 = Pim 1 (Homo sapiens, UniProt P11309); assay: Pim 1 AlphaScreen assay (high ATP)
Pim 1, sequence (P11309 whole entry): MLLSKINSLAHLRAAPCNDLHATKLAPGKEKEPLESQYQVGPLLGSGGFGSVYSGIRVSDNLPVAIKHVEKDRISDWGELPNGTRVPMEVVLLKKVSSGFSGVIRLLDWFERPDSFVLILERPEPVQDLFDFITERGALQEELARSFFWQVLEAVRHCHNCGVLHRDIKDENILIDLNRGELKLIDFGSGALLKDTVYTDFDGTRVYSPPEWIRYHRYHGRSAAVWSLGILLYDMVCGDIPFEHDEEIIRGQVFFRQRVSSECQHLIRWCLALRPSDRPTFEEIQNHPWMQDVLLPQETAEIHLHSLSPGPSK

Pim 3 = Pim 3 (Homo sapiens, UniProt Q86V86); assay: Pim 3 AlphaScreen assay (high ATP)

Pim 2, sequence (Q9P1W9 whole entry): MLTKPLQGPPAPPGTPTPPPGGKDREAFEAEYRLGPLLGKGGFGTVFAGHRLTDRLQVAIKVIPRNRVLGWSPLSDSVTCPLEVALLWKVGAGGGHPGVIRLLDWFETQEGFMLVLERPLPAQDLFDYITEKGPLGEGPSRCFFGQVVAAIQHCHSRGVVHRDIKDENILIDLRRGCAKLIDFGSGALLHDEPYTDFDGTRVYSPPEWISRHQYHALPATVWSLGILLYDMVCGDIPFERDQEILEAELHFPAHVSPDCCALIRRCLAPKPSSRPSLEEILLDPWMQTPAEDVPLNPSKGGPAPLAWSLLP

Row | Compound | EC50 [1] [nM] | IC50 (Pim 2) [nM] | IC50 (Pim 1) [nM] | IC50 (Pim 3) [nM]
1 | COCCOc1cc(F)c(-c2nc(C(=O)Nc3cnccc3[C@H]3C[C@@H](N)[C@H](O)[C@@H](C)C3)c(N)cc2F)c(F)c1 [Example 120, 3-amino-N-(4-((1R,3R,4R,5S)-3-amino-4-hydroxy-5-methylcyclohexyl)pyridin-3-yl)-6-(2,6-difluoro-4-(2-methoxyethoxy)phenyl)-5-fluoropicolinamide] | 32 | 3.78 | 0.03 | 0.51
2 | C[C@@H]1C[C@H](N)C[C@H](c2ccncc2NC(=O)c2ccc(F)c(-c3c(F)cc(C4COC4)cc3F)n2)C1 [Example 68, N-(4-((1R,3S,5S)-3-amino-5-methylcyclohexyl)pyridin-3-yl)-6-(2,6-difluoro-4-(oxetan-3-yl)phenyl)-5-fluoropicolinamide] | 25 | 1.6 | 0.01 | 1.13
3 | CC(C)OCc1cc(F)c(-c2nc(C(=O)Nc3cnccc3[C@@H]3C[C@H](C)C[C@H](N)C3)ccc2F)c(F)c1 [Example 147, N-(4-((1R,3S,5S)-3-amino-5-methylcyclohexyl)pyridin-3-yl)-6-(2,6-difluoro-4-(isopropoxymethyl)phenyl)-5-fluoropicolinamide] | 146 | 2.77 | 0.02 | 1.03
4 | COCCc1cc(F)c(-c2nc(C(=O)Nc3cnccc3[C@H]3C[C@@H](N)[C@H](O)[C@@H](C)C3)ccc2F)c(F)c1 [Example 108, N-(4-((1R,3R,4R,5S)-3-amino-4-hydroxy-5-methylcyclohexyl)pyridin-3-yl)-6-(2,6-difluoro-4-(2-methoxyethyl)phenyl)-5-fluoropicolinamide] | 906 | 2.93 | 0.04 | 1.19
5 | CC(C)Oc1cc(F)c(-c2nc(C(=O)Nc3cnccc3[C@H]3C[C@@H](N)[C@H](O)[C@@H](C)C3)ccc2F)c(F)c1 [Example 62, N-(4-((1R,3R,4R,5S)-3-amino-4-hydroxy-5-methylcyclohexyl)pyridin-3-yl)-6-(2,6-difluoro-4-isopropoxyphenyl)-5-fluoropicolinamide] | 52 | 1.03 | 0.01 | 0.35
6 | C[C@H]1CN(c2ccncc2NC(=O)c2ccc(F)c(-c3c(F)cc(CC(C)(C)O)cc3F)n2)C[C@@H](N)[C@@H]1O [Example 131, N-(4-((3R,4R,5S)-3-amino-4-hydroxy-5-methylpiperidin-1-yl)pyridin-3-yl)-6-(2,6-difluoro-4-(2-hydroxy-2-methylpropyl)phenyl)-5-fluoropicolinamide] | 25 | 1.31 | 0.01 | 0.18
7 | CSc1cc(F)c(-c2nc(C(=O)Nc3cnccc3N3C[C@@H](N)[C@H](O)[C@@H](C)C3)ccc2F)c(F)c1 [Example 23, N-(4-((3R,4R,5S)-3-amino-4-hydroxy-5-methylpiperidin-1-yl)pyridin-3-yl)-6-(2,6-difluoro-4-(methylthio)phenyl)-5-fluoropicolinamide] | 29 | 0.96 | 0.02 | 0.32
8 | COC(C)(C)c1cc(F)c(-c2nc(C(=O)Nc3cnccc3N3C[C@@H](N)[C@H](O)[C@@H](C)C3)ccc2F)c(F)c1 [Example 130, N-(4-((3R,4R,5S)-3-amino-4-hydroxy-5-methylpiperidin-1-yl)pyridin-3-yl)-6-(2,6-difluoro-4-(2-methoxypropan-2-yl)phenyl)-5-fluoropicolinamide] | 24 | 1.36 | 0.02 | 0.42
9 | CC(C)Oc1cc(F)c(-c2nc(C(=O)Nc3cnccc3N3C[C@@H](N)[C@H](O)[C@@H](C)C3)ccc2F)c(F)c1 [Example 93, N-(4-((3R,4R,5S)-3-amino-4-hydroxy-5-methylpiperidin-1-yl)pyridin-3-yl)-6-(2,6-difluoro-4-isopropoxyphenyl)-5-fluoropicolinamide] | 20 | 0.78 | 0.01 | 0.1
10 | C=Cc1ccc(F)c(-c2nc(C(=O)Nc3cnccc3[C@H]3C[C@@H](N)[C@H](O)[C@@H](C)C3)ccc2F)c1F [Example 193, N-(4-((1R,3R,4R,5S)-3-amino-4-hydroxy-5-methylcyclohexyl)pyridin-3-yl)-6-(2,6-difluoro-3-vinylphenyl)-5-fluoropicolinamide] | 1850 | 31.8 | 0.47 | 10.2
11 | COC1(c2cc(F)c(-c3nc(C(=O)Nc4cnccc4[C@@H]4C[C@H](C)C[C@H](N)C4)c(N)cc3F)c(F)c2)COC1 [Example 90, 3-amino-N-(4-((1R,3S,5S)-3-amino-5-methylcyclohexyl)pyridin-3-yl)-6-(2,6-difluoro-4-(3-methoxyoxetan-3-yl)phenyl)-5-fluoropicolinamide] | 19 | 0.72 | 0.01 | 0.71
12 | COC1(c2cc(F)c(-c3nc(C(=O)Nc4cnccc4[C@@H]4C[C@H](C)C[C@H](N)C4)ccc3F)c(F)c2)COC1 [Example 53, N-(4-((1R,3S,5S)-3-amino-5-methylcyclohexyl)pyridin-3-yl)-6-(2,6-difluoro-4-(3-methoxyoxetan-3-yl)phenyl)-5-fluoropicolinamide] | 32 | 2.56 | 0.05 | 4.05
13 | CC(C)Oc1cc(F)c(-c2cccc(C(=O)Nc3cnccc3[C@H]3C[C@@H](N)[C@H](O)[C@@H](C)C3)n2)c(F)c1 [Example 189, N-(4-((1R,3R,4R,5S)-3-amino-4-hydroxy-5-methylcyclohexyl)pyridin-3-yl)-6-(2,6-difluoro-4-isopropoxyphenyl)picolinamide] | 470 | 2.67 | 0.04 | 0.96
14 | C[C@@H]1C[C@H](N)C[C@H](c2ccncc2NC(=O)c2ccc(F)c(-c3c(F)cc(C(C)(C)C#N)cc3F)n2)C1 [Example 164, N-(4-((1R,3S,5S)-3-amino-5-methylcyclohexyl)pyridin-3-yl)-6-(4-(2-cyanopropan-2-yl)-2,6-difluorophenyl)-5-fluoropicolinamide] | 88 | 2.13 | 0.02 | 2.04

Continued, values first:

Row | EC50 [1] [nM] | IC50 (Pim 2) [nM] | IC50 (Pim 1) [nM] | IC50 (Pim 3) [nM] | Compound
15 | 1490 | 1.18 | 0.02 | 0.59 | C[C@H]1C[C@@H](c2ccncc2NC(=O)c2ccc(F)c(-c3c(F)cc(C4CCS(=O)(=O)CC4)cc3F)n2)C[C@@H](N)[C@@H]1O [Example 203, N-(4-((1R,3R,4R,5S)-3-amino-4-hydroxy-5-methylcyclohexyl)pyridin-3-yl)-6-(4-(1,1-dioxidotetrahydro-2H-thiopyran-4-yl)-2,6-difluorophenyl)-5-fluoropicolinamide]
16 | 4 | 0.73 | 0.01 | 0.13 | C[C@@H]1C[C@H](N)C[C@H](c2ccncc2NC(=O)c2nc(-c3c(F)cc(C4(O)COC4)cc3F)c(F)cc2N)C1 [Example 221, 3-amino-N-(4-((1R,3S,5S)-3-amino-5-methylcyclohexyl)pyridin-3-yl)-6-(2,6-difluoro-4-(3-hydroxyoxetan-3-yl)phenyl)-5-fluoropicolinamide]
17 | 47 | 3.01 | 0.05 | 2.07 | C[C@@H]1C[C@H](N)C[C@H](c2ccncc2NC(=O)c2ccc(F)c(-c3c(F)cc([C@@H](O)CO)cc3F)n2)C1 [Example 232, N-(4-((1R,3S,5S)-3-amino-5-methylcyclohexyl)pyridin-3-yl)-6-(4-((R)-1,2-dihydroxyethyl)-2,6-difluorophenyl)-5-fluoropicolinamide]
18 | 20 | 0.87 | 0.02 | 0.25 | CCc1cc(F)c(-c2nc(C(=O)Nc3cnccc3N3C[C@@H](N)[C@H](O)[C@@H](C)C3)ccc2F)c(F)c1 [Example 235, N-(4-((3R,4R,5S)-3-amino-4-hydroxy-5-methylpiperidin-1-yl)pyridin-3-yl)-6-(4-ethyl-2,6-difluorophenyl)-5-fluoropicolinamide]
19 | 1340 | 10.4 | 0.05 | 1.19 | C=CCOc1ccc(F)c(-c2nc(C(=O)Nc3cnccc3[C@H]3C[C@@H](N)[C@H](O)[C@@H](C)C3)ccc2F)c1F [Example 194, 6-(3-(allyloxy)-2.6-difluorophenyl)-N-(4-((1R,3R,4R,5S)-3-amino-4-hydroxy-5-methylcyclohexyl)pyridin-3-yl)-5-fluoropicolinamide]
20 | 221 | 17.3 | 0.16 | 23.9 | C[C@@H]1C[C@H](N)C[C@H](c2ccncc2NC(=O)c2ccc(F)c(-c3c(F)cc([S@+](C)[O-])cc3F)n2)C1 [Example 227, N-(4-((1R,3S,5S)-3-amino-5-methylcyclohexyl)pyridin-3-yl)-6-(2,6-difluoro-4-((S)-methylsulfinyl)phenyl)-5-fluoropicolinamide]
21 | 36 | 2.54 | 0.06 | 0.88 | COC(=O)c1cc(F)c(-c2nc(C(=O)Nc3cnccc3N3C[C@@H](N)[C@H](O)[C@@H](C)C3)ccc2F)c(F)c1 [Example 215, methyl 4-(6-((4-((3R,4R,5S)-3-amino-4-hydroxy-5-methylpiperidin-1-yl)pyridin-3-yl)carbamoyl)-3-fluoropyridin-2-yl)-3,5-difluorobenzoate]
22 | 239 | 0.98 | 0.01 | 0.55 | CCOC(C)(C)c1cc(F)c(-c2nc(C(=O)Nc3cnccc3N3C[C@@H](N)[C@H](O)[C@@H](C)C3)ccc2F)c(F)c1 [Example 201, N-(4-((3R,4R,5S)-3-amino-4-hydroxy-5-methylpiperidin-1-yl)pyridin-3-yl)-6-(4-(2-ethoxypropan-2-yl)-2,6-difluorophenyl)-5-fluoropicolinamide]
